Measurements as given in patent US5726156A, “Cytokine regulatory agents and methods of use in pathologies and conditions associated with altered cytokine levels” (Trega Biosciences, Inc., priority 1995, dated 1998).

How the values were obtained:
[1] = tested on: kidney (cyclosporine-induced nephrotoxicity); test: Cyclosporine-induced nephrotoxicity; assay type: in vivo, rats
Protocol: In the first study, male Sprague-Dawley rats (n=43) with a weight range of 240-290 g at the initiation of the cyclosporine A (CsA) treatment were divided into 4 weight matched groups. The groups were as follows: (1) Control: no CsA, no EX-2, treatment only with CsA vehicle (PBS) PO and EX-2 vehicle (also PBS) IP; (2) CsA: treatment with CsA (50 mg/kg in PBS administered PO daily at 0830 hr for 9 days) and IP injections of PBS (Ex-2 vehicle); (3) CsA and 50 μg: CsA treatment identical to group 2 with the addition of EX-2 (50 μg/kg IP administered daily at 0800 and 1700 hr in EX-2 vehicle); and (4) CsA and 500 μg: CsA treatment identical to groups 2 and 3, and EX-2 treatment protocol similar to group 3 except that the dose of EX-2 was 500 μg/kg BW. […] Renal blood flow was determined by the inulin extraction technique. […]
In the second study, male Sprague-Dawley rats (n=3l) with a weight range of 240-290 g at the time of initiation of the cyclosporine treatment were divided into 4 weight-matched groups. […] Renal hemodynamics were determined and extracellular fluid volumes were also assessed.
In the second study, where extracellular fluid volumes (ECF) were measured, there were no differences in ECF among control and treatment groups (27.6±1.9 in control, 27.5±1.7 in CsA and vehicle, 26.2±0.9 in CsA +200 μg/kg EX-2, and 25.7±1.4% in CsA +500 μg/kg EX-2). […]

[2] = tested on: disuse deconditioning; test: Disuse deconditioning (tail suspension) in rats; assay type: in vivo; details: 1 or 5 μg/kg IP twice daily
Protocol: Adult male Sprague-Dawley rats (355-365 g) were used in this study. Animals were housed individually in standard rat cages and were acclimated on a treadmill for 4 days. The next day, a baseline tail bleed was performed, followed by a maximal treadmill stress test the day after. The day following the stress test, the animals were divided into the appropriate treatment and control groups and the animals were suspended by their tails in suspension cages, which simulates weightlessness and, therefore, deconditions the animals. Another group of control animals was placed in standard rat cages with grated flooring similar to that utilized in the suspension cages. All animals were housed one per cage and supplied with food and water ad libitum. Body weights and food consumptions were measured daily. Animals received twice daily IP injections of 1 μg/kg or 5 μg/kg body weight of EX-2 (treated), or 1 ml/kg body weight of saline (control). On day 10, all animals were stress tested on the treadmill until they reached exhaustion. Data on maximum VO2 and running time were collected and compared to pre-suspension results. On day 14, all animals were sacrificed, and blood, tissues, and organs were collected for further analysis. All procedures and tests were performed blind to avoid researcher subjectivity. Statistical significance (p<0.05) between groups was evaluated by ANOVA with Student-Newman-Keuls test for multiple comparisons. All data are reported as the mean ± standard error (SE).
All of the animals were subjected to the stress tests, which measured exercise time and maximal VO2. As well, levels of the oxidative enzyme soleus citrate synthase and tibia bone density were measured.
Soleus citrate synthase was attenuated by 50%.

[3] = tested on: Interleukin-6 (IL-6); test: Reduction of LPS-induced IL-6 levels in mice; assay type: in vivo; details: 300 μg/mouse; LPS treated Balb/c mice
Protocol: Balb/c mice were grouped and treated as described in Example III, above. Blood samples were obtained from the orbital sinus at various times up to six hr and serum was collected and diluted as described above. A 100 μl aliquot was assayed for IL-6 levels using an IL-6-specific ELISA by a modification of the method of Starnes etal., J. Immunol. 145:4185-4194 (1990), which is incorporated herein by reference.
The mean (+/- SEM) IL-6 level in six mice from each group was determined and the percent reduction in IL-6 was calculated.

[4] = tested on: kidney (cisplatin nephrotoxicity); test: Cisplatin (CDDP) nephrotoxicity, renal function; assay type: in vivo, rats
Protocol: Male Sprague-Dawley were used to determine the effect of EX-2 on renal function after cisplatin (CDDP) administration. All rats were administered CDDP (4 mg/kg IP) and divided in 3 treatment groups (n=6/group). The groups were as follows: (1) Administration with vehicle and sterile PBS 3×/day; (2) Administration of EX-2 at a dose of 5 μg/kg, 3×/day; and (3) same as group 2 except the dose of EX-2 was 50 μg/kg, 3×/day. An infusion of ^3 H-inulin (0.6 μCi/ml in PBS) (2 ml/hr) was initiated at the end of the surgical preparation period. The continuous infusion was started 60 min prior to the renal function measurements and maintained to the end of the study. Glomerular filtration was assessed by inulin clearance techniques in two 30 min periods and renal blood flow (RBF) and renal plasma flow (RPF) were measured by inulin extraction techniques (arterial vs. renal vein inulin concentration) from left kidney renal vein blood sampled at the end of the second GFR measurement period. Urinary output was also monitored to determine both urine flow and fractional excretion of water. Urinary electrolyte (Na^+ and K^+) concentrations were analyzed by flame photometry (Model 51 Ca, Bacharch, inc.; Pittsburgh, Pa.) and urinary protein concentrations were determined. At the end of the measurement periods, the kidneys were removed for histological analysis.

[5] = tested on: glomerulonephritis; test: Glomerulonephritis (nephrotoxic serum), albuminuria; assay type: in vivo, rats; details: 100 μg/kg per injection, 3 times per day
Protocol: Male Sprague-Dawley rats (weight 194-248 g) were immunized by subcutaneous injection of 1 mg normal rabbit IgG (Sigma Chemical Co.) in Freund's complete adjuvant (Sigma Chemical Co.). EX-2 was administered 3 times per day (100 μg/kg per injection) throughout the duration of the experiment. Seven days later, the rats were injected with 1.5 ml of nephrotoxic serum iv via dorsal penile vein. Urine, plasma, and serum were collected before injection of nephrotoxic serum at 4, 6, 24, 48, and 96 hr thereafter. […] Albuminuria was quantified by immunoelectrophoresis.

[6] = suspended rats, stress test day 10
[7] = CDDP 4 mg/kg IP + 5 μg/kg EX-2 3×/day
[8] = CDDP 4 mg/kg IP + 50 μg/kg EX-2 3×/day

Ac-Nle-Gln-His-(D)Phe-Arg-(D)Trp-Gly-NH2 [EX-2]
renal blood flow ([1]; CsA-treated rats, EX-2 IP twice daily): improved blood flow to values not different from control | GFR ([1]; compared to CsA and vehicle controls, in both studies): significantly increased GFR | % Attenuation of suspension-induced decrease, Soleus Citrate Synthase ([2]; 14 days suspension): 50% | % Attenuation of suspension-induced decrease, Tibia Bone Density ([2]; 14 days suspension): 50% | % Attenuation of suspension-induced decrease, Exercise Time [2, 6]: 44% | % Attenuation of suspension-induced decrease, Maximal VO2 [2, 6]: 80% | Reduction in IL-6 levels [3]: 60% | GFR [4, 7]: 0.8 ± 0.2 | RBF [4, 7]: 12.1 ± 2.0 | RPF [4, 7]: 6.5 ± 1.0 ml/mm | GFR [4, 8]: 1.6 ± 0.4 | RBF [4, 8]: 16.8 ± 2.2 | RPF [4, 8]: 8.8 ± 1.1 ml/mm | % Reduction, Glomerulonephritis, Urine Albumin (mg/day) [5]: 62%
